The subject of data set [1] is Mycobacterium MTCC006. Put plainly: MIC by broth microdilution, Mycobacterium MTCC006. Format: cell-based. To be noted: read-out: Antimicrobial Screening (MIC) Mycobacterium MTCC006. How it is done:
(§1) Minimum Inhibiton Concentrations (MICs) were determined by broth microdilution technique as per the guidelines prescribed in the fifth edition of Approved Standards, NCCLS document M7-A5 Vol 20-No 2, 2000 Villinova, Pa.
(§2) Initial stock solution of the test compound was prepared in DMSO. Subsequent two fold dilutions were carried out in sterile Mueller Hinton Broth (Difco) (MHB).
(§3) Frozen cultures stocks were inoculated into 50 ml sterile MHB in 250 ml Erlyn Meyer flasks. • Composition of MHB is as follows: • Beef Extract Powder—2.0 grams/litre • Acid Digest of Casein—17.5 grams/litre • Soluble Starch—1.5 grams/litre • Final pH 7.3±0.1
(§4) Flasks were incubated for 4 to 5 hours at 35° C. on a rotary shaker at 150 rpm. Inoculum was prepared by diluting the culture in sterile MHB to obtain a turbidity of 0.5 McFarland standard. This corresponds to 1-2×10^8 CFU/ml. The stock was further diluted in sterile broth to obtain 1-2×10^6 CFU/ml. 50 μl of the above diluted inoculum was added from 1-10 wells. The plates were incubated overnight at 37° C.
(Dilution methods test growth across graded concentrations, often in twofold steps.)

Data set [2] relates to Salmonella TA97. Nature of the data set: MIC by broth microdilution, Salmonella TA97. Format: cell-based. The following applies: read-out: Antimicrobial Screening (MIC) Salmonella TA97. How it is done:
as §1, §2, §3, §4

Data set [3] concerns Enterococcus faecalis NCTC 12201 (DRCC 153, R). Nature of the data set: MIC by broth microdilution, Enterococcus sp 153 R. The data set is classed as cell-based. To be noted: NCTC12201, Enterococcus DRCC 153 (E. faecalis NCTC 12201), read-out: Antimicrobial Screening (MIC) Enterococcus sp 153 R. How it is done: as §1, §2, §3, §4
The test system of data set [4] is Staphylococcus aureus ATCC 29213 (DRCC 035, S). Nature of the data set: MIC by broth microdilution, Staphylococcus aureus 035 S. The data set is classed as cell-based. The following applies: ATCC29213, Staphylococcus aureus DRCC 035 (ATCC 29213), read-out: Antimicrobial Screening (MIC) Staphylococcus aureus 035 S. How it is done:
as §1, §2, §3, §4

Data set [5] has as its system Enterococcus faecium NCTC 12202 (DRCC 154, R). Put plainly: MIC by broth microdilution, Enterococcus sp 154 R. The data set is classed as cell-based. To be noted: NCTC12202, Enterococcus DRCC 154 (E. faecium NCTC 12202), read-out: Antimicrobial Screening (MIC) Enterococcus sp 154 R. How it is done:
as §1, §2, §3, §4

The subject of data set [6] is Staphylococcus aureus ATCC 49951 (DRCC 213, Smith S). Nature of the data set: MIC by broth microdilution, Staphylococcus aureus 213 Smith S. Format: cell-based. The following applies: ATCC49951, Staphylococcus aureus DRCC 213 (ATCC 49951), read-out: Antimicrobial Screening (MIC) Staphylococcus aureus 213 Smith S. How it is done: as §1, §2, §3, §4
The subject of data set [7] is Staphylococcus aureus ATCC 33591 (DRCC 019, MRSA). Put plainly: MIC by broth microdilution, Staphylococcus aureus 019 MRSA. The following applies: Staphylococcus aureus DRCC 019 (ATCC 33591), read-out: Antimicrobial Screening (MIC) Staphylococcus aureus 019 MRSA. The data set is classed as cell-based. How it is done: as §1, §2, §3, §4
For data set [8], the system named is Enterococcus faecalis ATCC 29212 (DRCC 034, S). Nature of the data set: MIC by broth microdilution, Enterococcus sp 034 S. The data set is classed as cell-based. To be noted: ATCC29212, Enterococcus DRCC 034 (E. faecalis ATCC 29212), read-out: Antimicrobial Screening (MIC) Enterococcus sp 034 S. How it is done:
as §1, §2, §3, §4

The source of these data is patent US20060270628A1, “Antiinfective 1,2,3-triazole derivatives, process for their preparation and pharmaceutical compositions containing them” (priority 2003, published 2006).

In brackets after ≈: the same amount, converted by molar mass.

One may read the melting point as the temperature, or range, at which the solid turns liquid. In the case of `COC(=S)NCc1cn(-c2ccc(-n3cccc3)cc2)nn1` [Example 1, [1-(4-Pyrrol-1-yl-phenyl)-1H-[1,2,3]triazol-4-ylmethyl]-thiocarbamic acid O-methyl ester], the melting point was determined as 150 °C.
`COC(=S)NCc1cn(-c2ccc(-n3ccc(C=O)c3)cc2)nn1` [Example 2, {1-[4-(3-Formyl-pyrrol-1-yl)-phenyl]-1H-[1,2,3]triazol-4-ylmethyl}-thiocarbamic acid O methyl ester] returned a melting point of 160 to 162 °C.
What is called MIC is the lowest concentration found to suppress growth. In the case of `COC(=S)NCc1cn(-c2cc(F)c(-n3ccc(C#N)c3)c(F)c2)nn1` [Example 8, {1-[4-(3-Cyano-pyrrol-1-yl)-3,5-difluoro-phenyl]-1H-[1,2,3]triazol-4-ylmethyl}-thiocarbamic acid O-methyl ester], the MIC in data set [1] was found to be 32 µg/mL (≈ 85.5 µM); in data set [2] it was 32 µg/mL (≈ 85.5 µM); in data set [3] it was 0.5 µg/mL (≈ 1.34 µM); in data set [4], 1 µg/mL (≈ 2.67 µM); in data set [5] it was 0.5 µg/mL (≈ 1.34 µM); in data set [6] it was 0.5 µg/mL (≈ 1.34 µM). For the same compound, the MIC in [7] and in data set [8] was 0.5 µg/mL (≈ 1.34 µM) each time.
As for `COC(=S)NCc1cn(-c2cc(F)c(-n3ccnc3)c(F)c2)nn1` [Example 9, [1-(3,5-Difluoro-4-imidazol-1-yl-phenyl)-1H-[1,2,3]triazol-4-ylmethyl]-thiocarbamic acid O-methyl ester], the melting point turned out to be 180 °C. The MIC in [1] was 4 µg/mL (≈ 11.4 µM). For the same compound, the MIC in [2] was found to be 32 µg/mL (≈ 91.3 µM). For the same compound, the MIC in data set [3] was 1 µg/mL (≈ 2.85 µM). The MIC in data set [4] was found to be 1 µg/mL (≈ 2.85 µM). Further, the MIC in data set [5] was 2 µg/mL (≈ 5.71 µM). Besides, in [6], the MIC came out at 1 µg/mL (≈ 2.85 µM). The MIC in data set [7] worked out at 1 µg/mL (≈ 2.85 µM). In data set [8], the MIC amounted to 2 µg/mL (≈ 5.71 µM).
For the compound `COC(=S)NCc1cn(-c2ccc(-n3ccnc3)c(F)c2)nn1` [Example 10, [1-(3-Fluoro-4-imidazol-1-yl-phenyl)-1H-[1,2,3]triazol-4-ylmethyl]-thiocarbamic acid O-methyl ester], the melting point is 165 to 167 °C.
`COC(=S)NCc1cn(-c2ccc(-n3cncn3)c(F)c2)nn1` [Example 20, [1-(3-Fluoro-4-[1,2,4]triazol-1-yl-phenyl)-1H-[1,2,3]triazol-4-yl-methyl]-thiocarbamic acid O-methyl ester] gave a melting point of 179 °C. The MIC in [1] was 16 µg/mL (≈ 48 µM). Moreover, the MIC in data set [2] was determined as 32 µg/mL (≈ 96 µM). In addition, the MIC in [3] was determined as 32 µg/mL (≈ 96 µM). The MIC in [4] was 16 µg/mL (≈ 48 µM). Moreover, the MIC in data set [5] stood at 32 µg/mL (≈ 96 µM). In addition, the MIC in [6] was found to be 16 µg/mL (≈ 48 µM). Besides, in data set [7], the MIC worked out at 8 µg/mL (≈ 24 µM). In data set [8], the MIC was determined as 32 µg/mL (≈ 96 µM).
In turn, `CC(=O)NCc1cn(-c2ccc(-n3cccc3)c(F)c2)nn1` [Example 22, N-[1-(3-Fluoro-4-pyrrol-1-yl-phenyl)-1H-[1,2,3]triazol-4-ylmethyl]-acetamide] gave a melting point of 210 to 215 °C.
The same measure, in the same setting: for `CC(=S)NCc1cn(-c2ccc(-n3ccnc3)c(F)c2)nn1` [Example 24, N-[1-(3-Fluoro-4-imidazol-1-yl-phenyl)-1H-[1,2,3]triazol-4-ylmethyl]-thioacetamide] the value was 185 °C; for `CC(=O)NCc1cn(-c2ccc(-n3cncn3)c(F)c2)nn1` [Example 25, N-[1-(3-Fluoro-4-[1,2,4]triazol-1-yl-phenyl)-1H-[1,2,3]triazol-4-ylmethyl]-acetamide], 223 °C.
In the case of `COC(=S)NCc1cn(-c2ccc(-n3cnc(CO)c3)c(F)c2)nn1` [Example 27, {1-[3-Fluoro-4-(4-hydroxymethyl-imidazol-1-yl)-phenyl]-1H-[1,2,3]triazol-4-ylmethyl}-thiocarbamic acid O-methyl ester], the melting point stood at 179 °C. In addition, in [1], the MIC stood at 16 µg/mL (≈ 44.2 µM). For the same compound, the MIC in data set [2] worked out at 32 µg/mL (≈ 88.3 µM). Moreover, the MIC in data set [3] was found to be 1 µg/mL (≈ 2.76 µM). For the same compound, the MIC in data set [4] amounted to 1 µg/mL (≈ 2.76 µM). The MIC in data set [5] is 2 µg/mL (≈ 5.52 µM). Further, the MIC in [6] stood at 1 µg/mL (≈ 2.76 µM). In addition, in data set [7], the MIC turned out to be 1 µg/mL (≈ 2.76 µM). The MIC in [8] stood at 2 µg/mL (≈ 5.52 µM).
